Data: patent US20030044861A1, “Method for diagnosing neoplasia” (priority 1998, published 2003)

Key:
A-427, Lung = assay: Growth inhibition of A-427 cells; type: cell-based; conditions: Homo sapiens
Description: (§1) Briefly, suspected neoplastic tissue samples are removed from a patient and grown as explants in vitro. The tissue samples are grown in the presence and absence of a cGMP-specific PDE inhibitor. After being grown in culture, cells are fixed by the addition of cold trichloroacetic acid. Protein levels are measured using the sulforhodamine B (SRB) colorimetric protein stain assay as previously described by Skehan, P., Storeng, R., Scudiero, D., Monks, A., McMahon, J., Vistica, D., Warren, J. T., Bokesch, H., Kenney, S., and Boyd, M. R., “New Colorimetric Assay For Anticancer-Drug Screening,” J. Natl. Cancer Inst. 82: 1107-1112, 1990, which is incorporated herein by reference.
(§2) To show the effectiveness of cGMP-specific PDE inhibition on various forms of neoplasia, (and, therefore, the usefulness of the diagnostic methods of this invention) cGMP-specific PDE inhibitors were tested on a number of neoplastic cell lines. […] Exisulind is defined as (Z)-5-fluoro-2-methyl-1-[[4-(methylsulfonyl)phenyl]methylene]indene-3-yl acetic acid or a salt thereof. The IC50 values were determined by the SRB assay.

[1] = test system: PDE peak B (novel cGMP-specific PDE) from SW-480 cells; assay: cGMP hydrolysis by PDE peak B; type: biochemical, human
neoplastic cells = assay: Apoptosis induction and growth inhibition in neoplastic cells (words only); type: cell-based
[2] = target: T1, PDE peak A (PDE5) from SW-480 cells (Homo sapiens, UniProt O76074); assay: cGMP hydrolysis by PDE peak A; type: biochemical
T1 construct: SW-480 cells are collected and homogenized; The homogenate is centrifuged, and the supernatant is loaded onto a DEAE-Trisacryl M column; endogenous in cells; host or cells: SW-480 human colon carcinoma cells, DEAE-Trisacryl M fraction peak A

HT-29 cells = assay: Apoptosis and necrosis by morphology (acridine orange/ethidium bromide); type: cell-based; conditions: HT-29 cells treated for six days
Description: In one type of apoptosis assay, suspected neoplastic cells are removed from a patient. The cells are then grown in culture in the presence or absence of a cGMP-specific PDE inhibitor. Apoptotic cells are measured by combining both the attached and “floating” compartments of the cultures. The protocol for treating tumor cell cultures with PDE inhibitors and related compounds to obtain a significant amount of apoptosis has been described in the literature. (See, Piazza, G. A., et al., Cancer Research, 55:3110-16, 1995, which is incorporated herein by reference). The novel features of this assay include collecting both floating and attached cells, identification of the optimal treatment times and dose range for observing apoptosis, and identification of optimal cell culture conditions.
Following treatment of neoplastic and normal cells with a test compound, cultures can be assayed for apoptosis and necrosis by fluorescent microscopy following labeling with acridine orange and ethidium bromide. The method for measuring apoptotic cell number has previously been described by Duke & Cohen, “Morphological And Biochemical Assays Of Apoptosis,” Current Protocols In Immunology, Coligan et al., eds. 3.17.1-3.17.16 (1992, which is incorporated herein by reference).
For example, floating and attached cells are collected, and aliquots of cells are centrifuged. The cell pellet is then resuspended in media and a dye mixture containing acridine orange and ethidium bromide. The mixture is then examined microscopically for morphological features of apoptosis.
Apoptotic and necrotic cell death was determined as previously described (Duke and Cohen, In: Current Protocols in Immunology, 3.17.1-3.17.16, New York, John Wiley and Sons, 1992). […] All data were collected from the same experiment.
The diagnostic method of this invention is used to determine whether a particular neoplasia is sensitive to treatment with a cGMP-specific PDE inhibitor. The apoptosis inducing activity for a series of phosphodiesterase inhibitors, specific for different PDEs, was determined. HT-29 cells were treated for 6 days with various inhibitors of phosphodiesterase. Apoptosis and necrosis were determined morphologically after acridine orange and ethidium bromide labeling in accordance with the assay described, supra.

HCT116, Colon = assay: Growth inhibition of HCT116 cells; type: cell-based; conditions: Homo sapiens, HCT-116
Description: as §1, §2

Mode of inhibition of cGMP hydrolysis, peak A [2]: competitively inhibit | IC50 (HCT116, Colon): 45 µM
SMILES: CSc1ccc(/C=C2/C(C)=C(CC(=O)O)c3cc(F)ccc32)cc1 [Sulindac sulfide]
IC50 (A-427, Lung): 90 µM | Mode of inhibition of cGMP hydrolysis, peak B [1]: competitively inhibit | Apoptosis induction in neoplastic cells (in words) (neoplastic cells): induce apoptosis in neoplastic cells | Growth inhibition of neoplastic cells (in words) (neoplastic cells): precisely the opposite | Apoptotic and necrotic cell death (FIG. 1, in words) (HT-29 cells): capable of causing apoptotic cell death without inducing neoplastic cell necrosis
